From patent US10456477B2, “Oligolactic acid conjugates and micelles with enhanced anticancer efficacy” (Wisconsin Alumni Research Foundation, priority 2016, dated 2019)
≈ marks a conversion by molar mass, not a printed value. Where “and” joins values, the source holds several entries; their conditions need not be identical. Equal values may be shown once. Read-outs that look alike come from different tables or passages of the source. Blank lines part the entries; values can stand above or below the molecule they belong to.

What was measured:
[1] = Physical stability of drug- or conjugate-loaded PEG-b-PLA micelles (precipitation); details: for Stability: PEG-b-PLA micelles; for time until SEL precipitated out of PEG-b-PLA micelles: micelles containing unconjugated SEL alone
Experimental: Instead, loading efficiency of PTX was low, ca. 21%, and drug loading for PEG-b-PLA micelles leveled off at 11.2% drug loading.
SEL drug loading for PEG-b-PLA micelles was 1% with a very low drug loading efficiency of 5%. […] In contrast, the PEG-b-PLA micelles containing unconjugated SEL were unstable and SEL precipitated out within about 5 minutes.

[2] = Drug loading efficiency, drug loading content and aqueous solubility of PEG-b-PLA micelles by RP-HPLC; format: physicochemical
Experimental: The polymeric film was dissolved by addition of sterile water or PBS (10 mM, pH 7.4), followed by centrifugation for 5 min at 13,000 rpm and sterile filtration (0.22 μm (Coring, N.Y.)).

A549 NSCLC cell line = test: IC50 values and combination index analysis of PTX, SEL and RAP alone and in combination; format: cell-based, human; details: alone or combination at molar ratio PTX:SEL 2:3, PTX:RAP 2:1, SEL:RAP 3:1, PTX:SEL:RAP 2:3:1
Experimental: The cells were seeded into a 96-well plate at a seeding density of 1,500 cells/100 μL/well and cultured in RPMI 1640 medium at 37° C. in 5% CO2 incubator for 24 h. […] Each was added into the wells to attain a final concentrations of 0.1, 1, 10, 100, and 1000 nM. The final level of DMSO in the medium was <0.1% at all drug levels. Cells cultured with diluted DMSO or PBS in medium were used as controls. Drug treated cells were placed in an incubator at 5% CO2 at 37° C. for 72 h. The medium in each well was aspirated, and 100 μL of 20% (v/v) CellTiter-Blue reagent in serum free RPMI medium was added, followed by incubation at 37° C. in 5% CO2 atmosphere for 1.5 h. Fluorescence intensity was measured by a SpectraMax M2 plate reader (Molecular Devices, CA) with excitation and emission at 560 and 590 nm, respectively. The half maximal inhibitory drug concentration (IC50) was determined by using GraphPad Prism version 5.00 for Windows (GraphPad Software, CA).
In vitro anticancer activity of PTX, SEL, and RAP alone and in combination.

[3] = In vitro release from PEG-b-PLA micelles (dialysis cassette); format: physicochemical
Experimental: Four dialysis cassettes were placed in 4 L PBS solution (10 mM, pH 7.4) on a Corning Hotplate Stirrer (Corning, N.Y.) at 37° C. […] At each time point, a sample of 100 μL was withdrawn, and the cassettes were replenished with 100 μL of fresh PBS solution (10 mM, pH 7.4). The external medium was replaced with 4 L of fresh buffer at 2, 4, 8, 12, 24 and 48 h to approximate sink conditions.

[4] = test system: human A549 non-small lung cancer cells; test: In vitro cytotoxicity, CellTiter-Blue Cell Viability Assay; format: cell-based; details: free form, 72 h
Excerpt: All chemicals were purchased from Sigma-Aldrich (St. Louis, Mo.) and used as received. Analytical grade organic solvents and all other reagents were purchased from Fisher Scientific (Pittsburgh, Pa.). PTX was purchased from LC Laboratories (Woburn, Mass.). PEG-b-PLA was purchased from Advanced Polymer Materials Inc. (Montreal, Canada): Mn of PEG and PLA was 4,000 and 2,200 g/mol, respectively; PDI 1.05. A549 human lung adenocarcinoma cells were purchased from ATCC (Manassas, Va.) and grown in RPMI 1640 medium supplemented with 10% fetal bovine serum (FBS), 100 IU/mL penicillin, 100 μg/mL streptomycin, and 2 mML-glutamine in 5% CO2 incubator at 37° C.
Each was added into the wells to attain a final concentrations of 0.1, 1, 10, 100, and 1000 nM. The final level of DMSO in the medium was <0.1% at all drug levels. Cells cultured with diluted DMSO or PBS in medium were used as controls. […] The medium in each well was aspirated, and 100 μL of 20% (v/v) CellTiter-Blue reagent in serum free RPMI medium was added, followed by incubation at 37° C. in 5% CO2 atmosphere for 1.5 h. Fluorescence intensity was measured by a SpectraMax M2 plate reader (Molecular Devices, CA) with excitation and emission at 560 and 590 nm, respectively. The half maximal inhibitory drug concentration (IC50) was determined by using GraphPad Prism version 5.00 for Windows (GraphPad Software, CA).

[5] = test system: A549 xenograft tumor model; test: In vivo antitumor efficacy in A549 xenograft tumor model; parameters: species or system female athymic nude mice; details: PEG-b-PLA micelles, 20 mg/kg, weekly tail vein injection, 3 weekly injections and one week off x 3 cycles
Experimental: All animal experiments were conducted under the protocol approved by Institutional Animal Care and Use Committee in University of Wisconsin-Madison in accordance with institutional and NIH guidance for the Care and Use of Laboratory Animals. 6-8 week-old female athymic nude mice (20-25 g each) were acquired from laboratory animal resources at School of Medicine and Public Health, University of Wisconsin-Madison. Mice were housed in ventilated cages with free access to water and food and acclimated for 1 week prior tumor cell injection. A549 cells (2×10^6 cells in 100 μL of serum-free RPMI 1640 medium) were harvested from sub-confluent cultures after trypsinization and were injected subcutaneously into the right flank of each mouse. […] Drug conjugates were administered via tail vein for 3 weekly injections, followed by 1-week rest period, totaling 3 cycles over a 12 weeks period. Body weight and tumor volume were monitored over the course of study. Tumor volume was calculated using the formula: V=(a×b^2)/2, where V is tumor volume, a is tumor length, b is tumor width.

[6] = Hydrodynamic diameter of PEG-b-PLA micelles by dynamic light scattering; format: physicochemical
Experimental: Proton nuclear magnetic resonance (^1H NMR) data were recorded on a Varian Unity-Inova two-channel 400 MHz NMR spectrometer (Palo Alto, Calif.) with regulated temperature at 25° C. Chemical shifts (δ) were reported in parts per million (ppm) relative to residual protonated solvent resonance at 7.26 ppm for CDCl3. Mass spectrometry data was obtained using the Waters LCT (ESI-TOF) in the Chemical Instrumentation Center in the Department of Chemistry, University of Wisconsin-Madison. Samples were sprayed from a 10 mM NH4OAc/CH3CN solution. Reverse-phase HPLC (RP-HPLC) analysis was carried out using a Shimadzu Prominence HPLC system (Shimadzu, Japan) equipped with an LC-20AT pump, a SIL-20AC HT autosampler, a CTO-20AC column oven, and a SPD-M20A diode array detector. Sample was separated by a Waters Symmetry Shield™ RP18 column (4.6 mm×250 mm, 5 μm, 100 Å). 10 μL of sample was injected at a flow rate of 0.8 mL/min, column temperature at 25° C., and UV detection wavelength at 227 nm. The separation of o(LA)n-PTX conversion products was done in gradient mode with organic phase containing 100% CH3CN as solvent A, and aqueous phase containing 100% milliQ water as solvent B. Gradient elution was employed as follows: 0 min, 50% solvent A and 50% solvent B; 35 min, 95% solvent A and 5% solvent B; and 40 min for equilibration. Hydrodynamic diameters of PEG-b-PLA micelles were measured by dynamic light scattering (DLS) using a Zetasizer Nano-ZS (Malvern Instruments Inc., UK) at 25° C. with a detection angle of […] and a He—Ne ion laser as the light source (4 mW, 633 nm). Prior to measurements, PEG-b-PLA micelle solutions were diluted with milliQ water or PBS (10 mM, pH 7.4) to afford the level of PEG-b-PLA at ˜0.1 mg/mL and 1 mL of each sample was placed into a disposable sizing cuvette (BRAND Polystyrene Cuvettes). The cumulant method was used to curve-fit the correlation function, and the z-average diameter and polydispersity index (PDI) of PEG-b-PLA micelles were calculated from the Stokes-Einstein equation and the slope of the correlation function, respectively. All measurements were performed in triplicate.

[7] = Table 1A, PEG-b-PLA micelles, drug to polymer ratio 1:10, initial level 1 mg, mean ± SD, n = 3
[8] = Table 2, PTX, SEL and RAP co-loaded as 3-in-1 micelle, initial level 1, 1.5, 0.5 mg, molar ratio 2:6:1, 21 mg PEG4000-b-PLA2200
[9] = Table 1B, drug to polymer ratio 1:1
[10] = Table 1B, drug to polymer ratio 1:5
[11] = Table 1B, drug to polymer ratio 1:10
[12] = Table 1B, PEG-b-PLA micelles, drug to polymer ratio 1:1
[13] = Table 1B, PEG-b-PLA micelles, drug to polymer ratio 1:5
[14] = Table 1B, PEG-b-PLA micelles, drug to polymer ratio 1:10
[15] = Table 1C, drug to polymer ratio 1:5
[16] = Table 1C, PEG-b-PLA micelles, drug to polymer ratio 1:5

micelles precipitating in ([1]; PEG-b-PLA micelles at room temperature): less than 2 hours
solubility ([2]; PEG-b-PLA micelles in water, aqueous with cosolvent or surfactant or cyclodextrin, Table 1A, PEG-b-PLA micelles, drug to polymer ratio 1:10, initial level 1 mg, mean ± SD, n = 3, read-out: Apparent solubility): 900 µg/mL
solubility ([2]; PEG-b-PLA micelles in water, aqueous with cosolvent or surfactant or cyclodextrin, Table 1A, PEG-b-PLA micelles, drug to polymer ratio 3:5, initial level 6 mg, mean ± SD, n = 3, read-out: Apparent solubility): 1200 ± 100 µg/mL
Drug loading [2, 7]: 8.6% and 8.6 ± 1.1%
Drug loading efficiency [2, 7]: 93.8 ± 12.8%
Drug loading ([2]; Table 1A, PEG-b-PLA micelles, drug to polymer ratio 3:5, initial level 6 mg, mean ± SD, n = 3): 11.2% and 11.2 ± 1.1%
Drug loading [2, 8]: 4.3%
Loading efficiency [2, 8]: 100% and 104%
solubility ([2]; water, PTX without PEG-b-PLA micelles, read-out: water solubility): ~10 µg/mL (≈ 11.7 µM)
IC50 (A549 NSCLC cell line): 7.4 ± 1.2 nM
precipitation of PTX during in vitro release ([3]; 9% drug loading, particle size 30 nm, PEG-b-PLA micelles): < 4 h
in vitro release from PEG-b-PLA micelles (in words) ([3]; PBS 10 mM, pH 7.4, 37° C., FIG. 4): rapidly released
Particle size ([6]; Table 1A, drug to polymer ratio 1:10, initial level 1 mg, 10 mg PEG-b-PLA, mean ± SD, n = 3): 30.5 nm and 30.5 ± 0.3 nm
Particle size ([6]; Table 1A, drug to polymer ratio 3:5, initial level 6 mg, 10 mg PEG-b-PLA, mean ± SD, n = 3): 37.0 ± 5.7 nm
Compound: CC(=O)O[C@H]1C(=O)[C@@]2(C)[C@H]([C@H](OC(=O)c3ccccc3)[C@]3(O)C[C@H](OC(=O)[C@H](O)[C@@H](NC(=O)c4ccccc4)c4ccccc4)C(C)=C1C3(C)C)[C@]1(OC(C)=O)CO[C@@H]1C[C@@H]2O [PTX, paclitaxel]
IC50 [4]: 2 nM
tumor growth / tumor volume [5]: tumor growth inhibition during treatment over 71 days and delayed tumor growth

Stability [1, 9]: <24 h
Stability [1, 10]: <24 h
Stability [1, 11]: <24 h
micelles released drug in ([1]; all PEG-b-PLA micelles containing unconjugated RAP): less than 24 hours
solubility ([2]; PEG-b-PLA micelles, aqueous with cosolvent or surfactant or cyclodextrin, Table 1B, PEG-b-PLA micelles, drug to polymer ratio 1:1, read-out: Apparent solubility): 500 µg/mL
solubility ([2]; PEG-b-PLA micelles, aqueous with cosolvent or surfactant or cyclodextrin, Table 1B, PEG-b-PLA micelles, drug to polymer ratio 1:5, read-out: Apparent solubility): 900 µg/mL
solubility ([2]; PEG-b-PLA micelles, aqueous with cosolvent or surfactant or cyclodextrin, Table 1B, PEG-b-PLA micelles, drug to polymer ratio 1:10, read-out: Apparent solubility): 1400 µg/mL
Drug loading [2, 12]: 11.5%
Drug loading efficiency [2, 12]: 23%
Drug loading [2, 13]: 7.3%
Drug loading efficiency [2, 13]: 44.0%
Drug loading [2, 14]: 6.4%
Drug loading efficiency [2, 14]: 70.1%
Drug loading [2, 8]: 2.2%
Loading efficiency [2, 8]: 100% and 104.6%
IC50 (A549 NSCLC cell line): 320.6 ± 2.3 nM
Particle size [6, 9]: 59.5 ± 21.6 nm
Particle size [6, 10]: 36.2 ± 0.4 nm
Particle size [6, 11]: 37.7 ± 1.9 nm
Compound: CO[C@H]1C[C@@H]2CC[C@@H](C)[C@@](O)(O2)C(=O)C(=O)N2CCCC[C@H]2C(=O)O[C@H]([C@H](C)C[C@@H]2CC[C@@H](O)[C@H](OC)C2)CC(=O)[C@H](C)/C=C(\C)[C@@H](O)[C@@H](OC)C(=O)[C@H](C)C[C@H](C)/C=C/C=C/C=C/1C [RAP, rapamycin]

Stability [1, 15]: <2 h
time until SEL precipitated out of PEG-b-PLA micelles [1]: ≤ 5 min
time until SEL precipitated out of PEG-b-PLA micelles ([1]; listed as selumetinib): about 5 minutes
drug loading, loaded in micelles with free paclitaxel and free rapamycin ([2]; 3-drug co-loading): greater than 6 wt %
Drug loading [2, 16]: 1%
Drug loading efficiency [2, 16]: 5% and 5.1%
Drug loading [2, 8]: 6.3%
Loading efficiency [2, 8]: 100% and 101.7%
solubility ([2]; aqueous with cosolvent or surfactant or cyclodextrin, Table 1C, PEG-b-PLA micelles, drug to polymer ratio 1:5, read-out: Apparent solubility): 100 µg/mL
drug loading, loaded alone in micelles ([2]; free selumetinib alone): about 1 wt %
IC50 (A549 NSCLC cell line): 1729 ± 1.6 nM
Particle size [6, 15]: 60.6 ± 0.6 nm
Compound: Cn1cnc2c(F)c(Nc3ccc(Br)cc3Cl)c(C(=O)NOCCO)cc21 [SEL, selumetinib]
